From US11090275B2, “Compositions comprising cannabidiol and second therapeutic agents for the treatment of cancer” (JAY PHARMA, INC., priority 2015, dated 2021)
Read-outs that look alike come from different tables or passages of the source.

How the values were obtained:
CCRF-CEM cells [1] = test: XTT cell viability, CCRF-CEM cells; type: cell-based, human; settings: cannabidiol at 5 μM or more, 24h
Procedure: (§1) human HL-60, myeloblastic leukemia and CCRF-CEM, acute lymphoblastic leukemia cell line were cultured in RPMI-1640 supplemented with 10% (v/v) heat-inactivated fetal calf serum, 2 mM L-glutamine, 100U/ml penicillin and 100 μg/ml streptomycin. MCF-7, breast cancer and A-172, glioblastoma cell lines were cultured in DMEM supplemented with 10% (v/v) heat-inactivated fetal calf serum, 2 mM L-glutamine, 100U/ml penicillin and 100 μg/ml streptomycin. Cultures were maintained at 37° C. in a humidified atmosphere with 5% CO2 and maintained in exponential phase by transfer to fresh medium every 2-3 days. Experiments were conducted in serum free medium and 5% or 10% FCS medium. The trypanblue dye exclusion method was used for cell counting performed using a hemocytometer under light microscope.

HL-60 cells [2] = test: Morphological quantification of apoptosis (acridine orange/ethidium bromide), HL-60; type: cell-based, human; settings: 5% FCS medium, 24 and 48h
Procedure: (§2) for determination of apoptosis, cells were harvested (650 g, 7 min) and stained with acridine orange/ethidium bromide at a final concentration of 0.05 mg/ml. This method allows distinguishing between live, necrotic and apoptotic cells (FIG. 11). […] At least 100 cells were counted under a fluorescence microscope and the percentage of affected cells was calculated.

CCRF-CEM cells [3] = test: Morphological quantification of apoptosis (acridine orange/ethidium bromide), CCRF-CEM; type: cell-based, human; settings: serum free and 5% FCS medium, 24h
Procedure: as §2

Mcl-1 = test: Western blot of Mcl-1 in CCRF-CEM cells; type: cell-based, human; settings: 20 μM cannabidiol, by 3h of treatment
Procedure: Cells washed twice with ice cold PBS and lysed in RIPA buffer (50 mM Tris-HCl, 0.1% NP-40, 1 mM DTT, 0.25M sucrose, 2 mM MgCl2, pH 7.4) for 30 min on ice. After centrifugation, the post-nuclear supernatant containing the cell soluble fraction were loaded on to a 12% SDS-PAGE gel. After electrophoresis, the gels were blotted onto a PVDF membrane (Bio-Rad, Hercules, Calif.), blocked with 5% (w/v) milk for overnight at 4° C. temperature, washed briefly in Tris-Buffered Saline Tween-20 (TBST), and then probed overnight at 4° C. with the anti-mouse human anti-MC1-1 and calreticulin (CRN) primary antibodies. Primary antibody binding was detected with anti-mouse IgG conjugated to horseradish peroxidase (Jackson Immunoresearch, Avondale, Pa.), and made visible by enhanced chemiluminescence (ECL) (Biological Industries, Israel), according to manufacturer's instructions. Antibodies against MCl-1 and calreticulin (CRN) were purchased from Santa Cruz, Calif., USA.

A-172 cells = test: XTT cell viability, A-172 cells; type: cell-based, human; settings: cannabidiol at 5 μM or more, 48h
Procedure: as §1

HL-60 tumor = test: Mouse xenograft model transplanted with HL-60 cells; type: in vivo; settings: 5 mg/kg CBD, 10 mg/kg CL, alone and combination, peritumoral; days 7 through 14
Procedure: NOD/SCID mice were bred and housed at animal facility of Ben-Gurion University of the Negev, Israel. All animals were used between 7-8 weeks old of age. For induction of tumor, mice were irradiated with 2.7 Gy X ray radiation for 2 min. The following 5 hours, mice were injected with 1 million viable HL-60 cells on right flank of mice. Mice were monitored for tumorigenesis. Tumors were measured during 14 days and their volumes (mm^3) were calculated as (d^2XD)/2 (where d is the shortest and D is the longest diameter of the tumor in mm). […] The injection was repeated once a day, 5 days per week, and tumor volumes were checked twice a week until the vehicle died and the remained animals were sacrificed.

MCF-7 cells = test: XTT cell viability, MCF-7 cells; type: cell-based; settings: cannabidiol at 5 μM or more, 24h
Procedure: as §1

HL-60 cells [4] = test: XTT cell viability, HL-60 cells; type: cell-based, human; settings: for IC50: Homo sapiens
Procedure: as §1

C=C(C)[C@@H]1CCC(C)=C[C@H]1c1c(O)cc(CCCCC)cc1O [CBD, Cannabidiol]
number of viable cells (CCRF-CEM cells [1]): significant reduction in the number of viable cells
induction of apoptosis (HL-60 cells [2]): dose and time dependent induction of apoptosis
induction of apoptosis (CCRF-CEM cells [3]): dose and time dependent induction of apoptosis
Mcl-1 expression (Mcl-1): down regulated
number of viable cells (A-172 cells): significant reduction in the number of viable cells
HL-60 tumor growth (HL-60 tumor): significant suppression
number of viable cells (MCF-7 cells): significant reduction in the number of viable cells
effect on cell viability at very low concentration (HL-60 cells [4]; 0.2 μM, serum free condition, 24h): profound effect on reduction of cell viability
sensitivity of cells to CBD (HL-60 cells [4]; 10% FCS medium, 24h): less sensitive
IC50 (HL-60 cells [4]; HL-60, 24 h, read-out: IC50, cell viability): 0.26 µM
IC50 (HL-60 cells [4]; HL-60, 48 h, read-out: IC50 value, cell viability): 16 µM
number of viable cells (HL-60 cells [4]; cannabidiol at 5 μM or more, 24h and 48 h): significant reduction in the number of viable cells

CCN(CC)CCOc1ccc(C(=C(Cl)c2ccccc2)c2ccccc2)cc1 [clomiphene]
HL-60 tumor growth (HL-60 tumor): significant suppression
